{
  "source": "patent US6046218A",
  "about": "“Pyridine derivative and medicament containing the same as an effective ingredient” (SS Pharmaceutical Co., Ltd., priority 1996, dated 2000)",
  "key": {"[1]": {"tested_on": "IL-4 production", "experiment": "Test 1: inhibition of IL-4 production in human T-cell strain ATL-16T(-) stimulated with PMA (R&D Systems EIA)", "format": "cell-based", "settings": "ATL-16T(-) 1×10^6 cells/0.5 ml/well, 20 nM PMA, 48 hours, read-out: Inhibition rate of IL-4 production; for inhibition at 10 µM: 10^-5 M; for inhibition at 1 µM: 10^-6 M; for inhibition at 0.1 µM: 10^-7 M; for inhibition at 0.01 µM: 10^-8 M", "experimental": "Test 1: Test on the inhibition of IL-4 production\nInto individual wells of a 48-well microplate, the human T-cell strain ATL-16T(-) was poured at a concentration of 1×10^6 cells/0.5 ml/well (n=3), followed by the addition of a stimulator (20 nM of PMA) and a medicament at the same time. The resulting mixture was incubated in 5% CO2 at 37° C. for 48 hours. After incubation, 100 μl of the supernatant were collected and subjected to measurement by a human IL-4 EIA kit (R&D SYSTEMS, INC.). The inhibition rate was calculated according to the following formula. [formula]"}, "[2]": {"tested_on": "IL-5 production", "experiment": "Test 3: inhibition of IL-5 production in human PBMC stimulated with ConA", "format": "cell-based", "settings": "10^-6 M, 10 μg/ml ConA, 48 hours, read-out: Inhibition rate of IL-5 production", "experimental": "Test 3: Test on the inhibition of IL-5 production\nThe peripheral blood was collected from a normal volunteer and peripheral blood mononuclear cells (PBMC) of the human peripheral blood were separated therefrom by the specific gravity centrifugation method. They were suspended in an AIM-V medium and their cell count was adjusted. To individual wells of a 96-well incubation plate, 1×10^6 cells/ml of PBMC were poured, followed by the addition of a stimulator (10 μg/ml of ConA) and a medicament. The resulting mixture was incubated in 5% CO2 at 37° C. for 48 hours. After incubation, 50 μl of the supernatant were collected and subjected to measurement by a human IL-5 EIA kit (BIO SOURCE, INC.). The inhibition rate was calculated according to the following formula. [formula]"}},
  "note": "Counter-ions that a name gives are not always drawn.",
  "data": [
    {"smiles": "COC(=O)CCCCCOc1cnc(/C=C/C(=O)C2CCCC2)cc1OC", "note": "[Ex. 17, Methyl 6-[4-methoxy-2-(3-cyclopentyl-3-oxo-1-propenyl)-5-pyridyloxy]hexanoate]", "values": [
      {"measurement": "inhibition at 10 µM", "setting": "[1]", "result": 111, "unit": "%"},
      {"measurement": "inhibition at 1 µM", "setting": "[1]", "result": 92.8, "unit": "%"},
      {"measurement": "inhibition at 0.1 µM", "setting": "[1]", "result": 88.6, "unit": "%"},
      {"measurement": "inhibition at 0.01 µM", "setting": "[1]", "result": 74.7, "unit": "%"},
      {"measurement": "inhibition at 1 µM", "setting": "[2]", "result": 84.3, "unit": "%"}
    ]},
    {"smiles": "COC(=O)CCCOc1cnc(/C=C/C(=O)C2CCCC2)cc1OC", "note": "[Ex. 18, Methyl 4-[4-methoxy-2-(3-cyclopentyl-3-oxo-1-propenyl)-5-pyridyloxy]butanoate]", "values": [
      {"measurement": "inhibition at 10 µM", "setting": "[1]", "result": 88.2, "unit": "%"},
      {"measurement": "inhibition at 1 µM", "setting": "[1]", "result": 78.3, "unit": "%"},
      {"measurement": "inhibition at 0.1 µM", "setting": "[1]", "result": 67.8, "unit": "%"},
      {"measurement": "inhibition at 0.01 µM", "setting": "[1]", "result": 34.8, "unit": "%"},
      {"measurement": "inhibition at 1 µM", "setting": "[2]", "result": 96.9, "unit": "%"}
    ]},
    {"smiles": "COc1cc(/C=C/C(=O)c2ccccc2)ncc1O", "note": "[Ex. 21, 5-hydroxy-4-methoxy-2-(3-oxo-3-phenyl-1-propenyl)pyridine]", "values": [
      {"measurement": "inhibition at 10 µM", "setting": "[1]", "result": 97.3, "unit": "%"},
      {"measurement": "inhibition at 1 µM", "setting": "[1]", "result": 90.3, "unit": "%"},
      {"measurement": "inhibition at 0.1 µM", "setting": "[1]", "result": 80.1, "unit": "%"},
      {"measurement": "inhibition at 0.01 µM", "setting": "[1]", "result": 72.5, "unit": "%"},
      {"measurement": "inhibition at 1 µM", "setting": "[2]", "result": 67.3, "unit": "%"}
    ]},
    {"smiles": "CCCCCC(=O)/C=C/c1cc(O)c(O)cn1", "note": "[Ex. 22, 4,5-Dihydroxy-2-(3-oxo-1-octenyl)pyridine]", "values": [
      {"measurement": "inhibition at 10 µM", "setting": "[1]", "result": 111, "unit": "%"},
      {"measurement": "inhibition at 1 µM", "setting": "[1]", "result": 75.5, "unit": "%"},
      {"measurement": "inhibition at 0.1 µM", "setting": "[1]", "result": 67.6, "unit": "%"},
      {"measurement": "inhibition at 0.01 µM", "setting": "[1]", "result": 50, "unit": "%"},
      {"measurement": "inhibition at 1 µM", "setting": "[2]", "result": 80.9, "unit": "%"}
    ]},
    {"smiles": "COc1cnc(/C=C/C(O)c2ccccc2)cc1OC", "note": "(centres unmarked) [Ex. 23, 4,5-dimethoxy-2-(3-hydroxy-3-phenyl-1-propenyl)pyridine]", "values": [
      {"measurement": "inhibition at 10 µM", "setting": "[1]", "result": 88, "unit": "%"},
      {"measurement": "inhibition at 1 µM", "setting": "[1]", "result": 80.7, "unit": "%"},
      {"measurement": "inhibition at 0.1 µM", "setting": "[1]", "result": 64.9, "unit": "%"},
      {"measurement": "inhibition at 0.01 µM", "setting": "[1]", "result": 64.7, "unit": "%"},
      {"measurement": "inhibition at 1 µM", "setting": "[2]", "result": 96.3, "unit": "%"}
    ]},
    {"smiles": "COc1cnc(/C=C/C(O)c2ccccc2)cc1O", "note": "(centres unmarked) [Ex. 24, 4-Hydroxy-2-(3-hydroxy-3-phenyl-1-propenyl)-5-methoxypyridine]", "values": [
      {"measurement": "inhibition at 10 µM", "setting": "[1]", "result": 92.2, "unit": "%"},
      {"measurement": "inhibition at 1 µM", "setting": "[1]", "result": 79.5, "unit": "%"},
      {"measurement": "inhibition at 0.1 µM", "setting": "[1]", "result": 69.5, "unit": "%"},
      {"measurement": "inhibition at 0.01 µM", "setting": "[1]", "result": 56, "unit": "%"},
      {"measurement": "inhibition at 1 µM", "setting": "[2]", "result": 80, "unit": "%"}
    ]},
    {"smiles": "CCCCCC(O)/C=C/c1cc(OCCCCCC(=O)OC)c(OC)cn1", "note": "(centres unmarked) [Ex. 30, Methyl 6-[2-(3-hydroxy-1-octenyl)-5-methoxy-4-pyridyloxy]hexanoate]", "values": [
      {"measurement": "inhibition at 10 µM", "setting": "[1]", "result": 74, "unit": "%"},
      {"measurement": "inhibition at 1 µM", "setting": "[1]", "result": 67, "unit": "%"},
      {"measurement": "inhibition at 0.1 µM", "setting": "[1]", "result": 56.8, "unit": "%"},
      {"measurement": "inhibition at 0.01 µM", "setting": "[1]", "result": 40.7, "unit": "%"},
      {"measurement": "inhibition at 1 µM", "setting": "[2]", "result": 73.2, "unit": "%"}
    ]},
    {"smiles": "COC(=O)CCCCCOc1cnc(/C=C/C(O)C2CCCC2)cc1OC", "note": "(centres unmarked) [Ex. 31, Methyl 6-[2-(3-cyclopentyl-3-hydroxy-1-propenyl)-4-methoxy5-pyridyloxy]hexanoate]", "values": [
      {"measurement": "inhibition at 10 µM", "setting": "[1]", "result": 81.2, "unit": "%"},
      {"measurement": "inhibition at 1 µM", "setting": "[1]", "result": 69.5, "unit": "%"},
      {"measurement": "inhibition at 0.1 µM", "setting": "[1]", "result": 58, "unit": "%"},
      {"measurement": "inhibition at 0.01 µM", "setting": "[1]", "result": 40.4, "unit": "%"},
      {"measurement": "inhibition at 1 µM", "setting": "[2]", "result": 71.6, "unit": "%"}
    ]},
    {"smiles": "COc1cnc(/C=C/C(=O)c2ccccc2)cc1OCCCC(=O)O", "note": "[Ex. 33, 4-[5-methoxy-2-(3-oxo-3-phenyl-1-propenyl)-4-pyridyloxy]butanoic acid]", "values": [
      {"measurement": "inhibition at 10 µM", "setting": "[1]", "result": 107, "unit": "%"},
      {"measurement": "inhibition at 1 µM", "setting": "[1]", "result": 93.9, "unit": "%"},
      {"measurement": "inhibition at 0.1 µM", "setting": "[1]", "result": 90, "unit": "%"},
      {"measurement": "inhibition at 0.01 µM", "setting": "[1]", "result": 86.1, "unit": "%"},
      {"measurement": "inhibition at 1 µM", "setting": "[2]", "result": 72.1, "unit": "%"}
    ]},
    {"smiles": "CCCCCC(O)/C=C/c1cc(OCCCCCC(=O)O)c(OC)cn1", "note": "(centres unmarked) [Ex. 35, 6-[2-(3-Hydroxy-1-octenyl)-5-methoxy-4-pyridyloxy]hexanoic acid]", "values": [
      {"measurement": "inhibition at 10 µM", "setting": "[1]", "result": 90.3, "unit": "%"},
      {"measurement": "inhibition at 1 µM", "setting": "[1]", "result": 89.3, "unit": "%"},
      {"measurement": "inhibition at 0.1 µM", "setting": "[1]", "result": 82.5, "unit": "%"},
      {"measurement": "inhibition at 0.01 µM", "setting": "[1]", "result": 64.3, "unit": "%"},
      {"measurement": "inhibition at 1 µM", "setting": "[2]", "result": 82.2, "unit": "%"}
    ]},
    {"smiles": "COc1cc(/C=C/C(O)C2CCCC2)ncc1OCCCCCC(=O)O", "note": "(centres unmarked) [Ex. 36, 6-[2-(3-Cyclopentyl-3-hydroxy-1-propenyl)-4-methoxy-5-pyridyloxy]hexanoic acid hydrochloride]", "values": [
      {"measurement": "inhibition at 10 µM", "setting": "[1]", "result": 85.1, "unit": "%"},
      {"measurement": "inhibition at 1 µM", "setting": "[1]", "result": 78.9, "unit": "%"},
      {"measurement": "inhibition at 0.1 µM", "setting": "[1]", "result": 68.6, "unit": "%"},
      {"measurement": "inhibition at 0.01 µM", "setting": "[1]", "result": 37.6, "unit": "%"},
      {"measurement": "inhibition at 1 µM", "setting": "[2]", "result": 86.5, "unit": "%"}
    ]},
    {"smiles": "COc1cc(/C=C/C(=O)C2CCCC2)ncc1OCCCCCC(=O)O", "note": "[Ex. 38, 6-[2-(3-Cyclopentyl-3-oxo-1-propenyl)-4-methoxy-5-pyridyloxy]hexanoic acid hydrochloride]", "values": [
      {"measurement": "inhibition at 10 µM", "setting": "[1]", "result": 76.3, "unit": "%"},
      {"measurement": "inhibition at 1 µM", "setting": "[1]", "result": 68.9, "unit": "%"},
      {"measurement": "inhibition at 0.1 µM", "setting": "[1]", "result": 59, "unit": "%"},
      {"measurement": "inhibition at 0.01 µM", "setting": "[1]", "result": 42.4, "unit": "%"},
      {"measurement": "inhibition at 1 µM", "setting": "[2]", "result": 88.7, "unit": "%"}
    ]},
    {"smiles": "COc1cnc(/C=C/C(=O)N2CCOCC2)cc1OC", "note": "[Ex. 110, 4,5-Dimethoxy-2-(3-morpholino-3-oxo-1-propenyl)pyridine hydrochloride]", "values": [
      {"measurement": "inhibition at 1 µM", "setting": "[2]", "result": 79.3, "unit": "%"}
    ]},
    {"smiles": "COc1cnc(/C=C/C(=O)N2CCCCC2)cc1OC1CCCC1", "note": "[Ex. 111, 4-Cyclopentyloxy-5-methoxy-2-(3-oxo-3-piperidino-1-propenyl)pyridine hydrochloride]", "values": [
      {"measurement": "inhibition at 1 µM", "setting": "[2]", "result": 73.2, "unit": "%"}
    ]}
  ]
}
